In article PMC5357725, “Global update on the susceptibility of human influenza viruses to neuraminidase inhibitors, 2014–2015” (Antiviral Research, 2016):

Legend:
[1] = system: A(H1N1)pdm09 neuraminidase (NA); assay type: biochemical, influenza A(H1N1)pdm09 virus
[2] = target: B/Victoria-lineage neuraminidase (NA); assay type: biochemical, influenza B/Victoria-lineage virus

Row | Compound | inhibition class (NI, RI, HRI) [1] | IC50 values fold higher than the median [2]
1 | [H]/N=C(\N)N[C@H]1C=C(C(=O)O)O[C@@H]([C@H](OC)[C@H](O)CO)[C@@H]1NC(C)=O [Laninamivir, laninamivir] | NI (key: normal inhibition (NI) (A viruses <10-fold; reduced inhibition (RI) (A viruses 10- to 100-fold; highly reduced inhibition (HRI) (A viruses >100-fold) | 
2 | CCC(CC)[C@H](NC(C)=O)[C@@H]1[C@H](O)[C@@H](C(=O)O)C[C@H]1N=C(N)N [Peramivir, peramivir] |  | 8- to 14 fold
